# Source: US10752591B2, “18-20 member bi-polycyclic compounds” (Haro Pharmaceutical Inc., priority 2014, dated 2020)
# Key:
# purified rat liver HDAC = purified rat liver HDAC inhibition; type: biochemical; settings: relative to compound 17
# Procedure: The effect of compounds on the enzymatic activity of purified recombinant human HDAC-1, -2, -3, -6, and -8 activity and of purified rat liver HDAC was examined by measuring the deacetylation of synthetic peptides in various preparations of HDACs. HDAC assays were performed using a two-step enzymatic reaction where enzyme activity is correlated to the release of […] (AMC). AMC fluorescence is measured in a fluorescent plate reading using λex380 nm and λen440 nm.
# The reaction was allowed to proceed for 40 min at 37° C., after which developer solution (0.5% trypsin, 10 μM trichostatin A (TSA)) was added to obtain a final concentration of 0.1% trypsin, 2 μM TSA. After 30 minutes at room temperature, the amount of free fluorogenic AMC was measured as described above.
# RAR = experiment: RAR-mediated transcription, RARE-tk luciferase reporter in MCF7 cells; type: cell-based
# Description: (§1) The effect of various compounds of the invention on RAR-mediated transcription in MCF7 breast cancer cells was examined by measuring their effect on the transcription of a luciferase reporter gene under the control of a TK promoter placed downstream of a RAR response element. In addition, the effect of the compounds on the closely related RXR-mediated transcription was examined by measuring their effect on the transcription of a luciferase reporter gene under the control of a TK promoter placed downstream of a RXR response element.
# (§2) Typically, 10,000 cells were plated in 96 wells plates in phenol red-free RPMI medium supplemented with 10% charcoal-stripped Fetal Bovine Serum. After 24 hours, cells were transfected with 0.1 μg of luciferase reporter plasmid and 0.01 μg of a reporter plasmid expressing renilla luciferase (RLuc) gene under the control of a SV40 promoter, using Fugene 6 transfection reagent (0.5 μl/well Promega Corporation). Cells were treated in triplicate with compounds or vehicle (DMSO) for 24 hours. Luciferase and renilla luciferase activities were measured using Dual-Glo reagent (Promega Corporation). Luciferase activity was normalized in each well for renilla activity.
# RXR = experiment: RXR-mediated transcription, RXRE luciferase reporter in MCF7 cells; type: cell-based
# Description: as §1, §2
# [1] = test system: IMR-32 neuroblastoma cells; experiment: cytotoxicity, cell survival (CellTiterGlo) in IMR-32; type: cell-based; settings: relative to compounds 17 and 8
# Procedure: (§3) The cytotoxicity of compounds was examined and directly compared to compound 17, by measuring cell survival of clonal tumor cell lines IMR-32, BE2C (neuroblastoma), as well as MDA-MB-231, BT20, HCC-38 (Basal) and MCF7 (luminal) breast cancer cells (ATCC). Cells were cultured in phenol red-free RPMI medium supplemented with 10% FBS and 1 mM Ala-Glu. Typically, 10,000-20,000 cells/well were plated in a 96 well plate (Costar 3197). Cells were exposed to compounds or vehicle (1% DMSO final). Cells were maintained in the presence of compound for four or five days. Media and compounds were renewed every 48 hours. Cell survival was measured using the luminescence CellTiterGlo kit (Promega Corporation) and expressed as relative light unit as fold over DMSO.
# [2] = test system: BE-2C neuroblastoma cells; experiment: cytotoxicity, cell survival (CellTiterGlo) in BE-2C; type: cell-based; settings: BE-2C cells
# Procedure: as §3
# [3] = test system: MDA-MB-231 breast cancer cells; experiment: cytotoxicity, cell survival (CellTiterGlo) in MDA-MB-231; type: cell-based; settings: MDA-MB-231 cells
# Procedure: as §3
# [4] = test system: Lys40 acetylated alpha tubulin; experiment: intracellular acetylation of alpha-tubulin in BE-2C cells; type: cell-based
# Procedure: The effect of certain compounds on intracellular acetylation of target proteins was tested in high risk neuroblastoma cells, BE-2C and IMR-32 cells.
# BE-2C cells were grown to confluence in phenol-red-free RPMI media supplemented with 10% FBS and 2.5 mM Ala-Glu. […] Total and Lys 40 acetylated alpha tubulin were detected using specific antibodies.
# Beta actin, total and Lys382 acetylated p53, and Lys40 acetylated alpha, and total tubulin were detected using antibodies (Cell Signaling #8557, #2524 #2525, #12152 and #2144 respectively) using manufacturer recommended conditions.
# C2Cl2 cells = experiment: myoblast fusion in long term C2Cl2 cultures (MHC immunocytochemistry); type: cell-based; settings: long-term culture, suboptimal RPMI media with 2% horse serum
# Procedure: The effect of compounds on myoblast fusion was examined in C2Cl2 cells maintained in RPMI media supplemented with 2% horse serum. C2Cl2 myoblastic cells where purchased from the American Type Culture Collection (ATCC) and maintained undifferentiated in RPMI media (Corning) supplemented with 2 mM L-Alanine-L-Glutamine (ATCC) and 1 mM pyruvate (Corning). Undifferentiated cells where maintained below 70% confluence. For long term cultures and compound treatment, cells where plated at high density CellBIND Culture Dishes (corning 3294, 3296, 3337) and in RPMI supplemented with 2% Horse Serum (Gibco) and 2 mM L-Alanine-L-Glutamine (ATCC) and 1 mM pyruvate (Corning). Compounds were dissolved in DMSO at 1000 time the final concentration and diluted 1-in-1000 in the media covering the cells. Media and compounds were changed daily. For immunocytochemistry, cells were fixed in 2% PFA in HBSS for 10 minutes and left in HBSS at 4° under humidified atmosphere and processed for immunocytochemistry. For myosin heavy chain detection (MHC), cells were first incubated in 100 ul-1 ml 0.15 M Glycine in DPBS for 10 minutes, rinse with DPBS. 100 ul-1 ml 0.5% Triton-X in DPBS was added for 10 minutes, rinsed with DPBS, and followed by incubation with 100 ul blocking agent (10% goat serum in DPBS) for 30 min at room temperature. MF20 primary antibody in 10% goat serum in DPBS was added at 1/60 dilution for 30 min at room temperature and rinsed three times with 100 ul DPBS. IgG2b goat anti mouse secondary antibody (Jackson Immuno-Research) was added at 1:1000 in 10% goat serum in DPBS for exactly 30 min at room temperature then rinsed 3 times with 100 ul DPBS. A final rinse in H2O was performed and cells were covered with two drops of Elvanol and cover gently with cover slip and allowed to dry in the dark for 24-48 hours.
# C2Cl2 myoblasts = experiment: myotube fusion and degeneration in differentiated C2Cl2 cells left in exhausted media; type: cell-based; settings: 200 nM pre-treatment
# Procedure: C2Cl2 myoblasts were seeded at 100,000 in 30 mm plate in growth medium (Phenol red-free RMPI containing 10% FBS, Sodium pyruvate and Ala-Glu), and “pre-treated” with DMSO or 200 nM of compounds 13 or 17. At confluence cells were shifted to differentiation media (high glucose DMEM, +0.2% HS+1× Insulin/Transferrin/Selenium (Life Tech 41400-045)+Glutamine, without Pyruvate). Fully differentiated C2Cl2-derived myotubes were left in culture without media renewal for 8 days followed by media renewal and microscopic examination.
smiles,measurement,setting,value
CC1(C)CCC(C)(C)c2cc(-c3cc4cc(C(=O)NO)ccc4[nH]3)ccc21 [Compound 13],times more potent than compound 17 in inhibition of purified rat hepatic HDAC,purified rat liver HDAC,seventy
same,RARE-dependent luciferase expression,RAR,activated
same,times more potent than compound 17 in activating RARE-tk_luc reporter,RAR; relative to compound 17,five to ten
same,transcriptional activation of RXR / RXRE-promoter,RXR,none
same,fold more potent than compounds 17 and 8 in killing IMR-32 cells,[1],ten
same,"cytotoxic potency compared with compound 17, SAHA, Ricolinistat",[2],"more potent than compound 17, SAHA or Ricolinistat"
same,"cytotoxic potency compared with compound 17, SAHA, Ricolinistat",[3],"more potent than compound 17, SAHA or Ricolinistat"
same,alpha tubulin acetylation by LC-MS analysis,[4],lack of increased alpha tubulin acetylation
same,Lysin (K) 40 alpha-Tubulin acetylation,"[4]; 5 μM, 16 hours",no significant acetylation
same,fusion of single cells into multinucleated C2Cl2 myotubes,C2Cl2 cells,enhances the fusion
same,cellular fusion after 72 hours differentiation versus DMSO,C2Cl2 myoblasts,extensive cellular fusion
same,myotube structural atrophy in exhausted media for over 8 days,C2Cl2 myoblasts,very little structural alteration
